From US9469615B2, “Quinoxalines and AZA-quinoxalines as CRTH2 receptor modulators” (Merck Sharp & Dohme Corp., priority 2010, dated 2016)

Each compound was assayed against T1, hCRTH2 (Homo sapiens, UniProt Q9Y5Y4) (assay: Radioligand binding assay ([3H]PGD2 competition, HEK-hCRTH2 membranes)). Settings: [3H]PGD2 binding, rated A-E (Table A).
T1 construct: expressed in transfected cells; host or cells: HEK (human embryonic kidney) cells expressing hCRTH2; membrane preparation
T1 sequence (Q9Y5Y4 1-395): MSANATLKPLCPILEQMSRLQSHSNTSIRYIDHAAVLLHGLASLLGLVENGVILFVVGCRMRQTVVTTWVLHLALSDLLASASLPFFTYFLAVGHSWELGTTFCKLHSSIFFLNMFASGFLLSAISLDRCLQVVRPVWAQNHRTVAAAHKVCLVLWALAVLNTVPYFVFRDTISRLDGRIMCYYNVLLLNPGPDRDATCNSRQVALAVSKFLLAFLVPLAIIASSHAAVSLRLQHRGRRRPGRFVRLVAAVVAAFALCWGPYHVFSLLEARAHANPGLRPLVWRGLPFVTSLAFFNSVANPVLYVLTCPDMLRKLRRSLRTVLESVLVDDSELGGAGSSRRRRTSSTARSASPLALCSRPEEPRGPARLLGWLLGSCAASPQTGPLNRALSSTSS
Summary of the method: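 Using membranes of an HEK line stably carrying hCRTH2, ligands were tested against [3H]PGD2 (3.0 nM) in pH 7.4 Tris buffer containing 2 mM MnCl2 and 1 mM EDTA. After one hour at room temperature, filters were washed cold and counted.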

| Ki [nM] | SMILES |
| --- | --- |
| 0.1 to 2 | COc1ccc(CNC(=O)c2ccc3nc(-c4ccccc4)c(CCCCC(=O)O)nc3c2)cc1 [15BA, 5-{7-[(4-methoxybenzyl)carbamoyl]-3-phenylquinoxalin-2-yl}pentanoic acid] |
| 0.1 to 2 | O=C(O)CCCCc1nc2cc(C(=O)N[C@H]3CCCc4ccccc43)ccc2nc1-c1ccc(Cl)cc1 [16AN, 3-(4-chlorophenyl)-7-[[(1,2,3,4-tetrahydro-1(S)-naphthalenyl)amino]carbonyl]-2-quinoxalinepentanoic acid] |
| 0.1 to 2 | O=C(O)CCCCc1nc2cc(C(=O)N3CC=C(c4ccccc4)CC3)ccc2nc1-c1ccc(Cl)cc1 [16AJ, 3-(4-chlorophenyl)-7-[(3,6-dihydro-4-phenyl-1(2H)-pyridinyl)carbonyl]-2-quinoxalinepentanoic acid] |
| 0.1 to 2 | O=C(O)CCCCc1nc2cc(C(=O)NCc3ccccc3F)ccc2nc1-c1ccccc1 [15AB, 5-{7-[(2-fluorobenzyl)carbamoyl]-3-phenylquinoxalin-2-yl}pentanoic acid] |
| 0.1 to 2 | CC(CCc1nc2cc(C(=O)NC3Cc4ccccc4C3)ccc2nc1-c1ccc(C(F)(F)F)cc1)CC(=O)O (stereo not drawn) [17T, 7-[[(2,3-dihydro-1H-inden-2-yl)amino]carbonyl]-beta-methyl-3-[4-(trifluoromethyl)phenyl]-2-quinoxalinepentanoic acid] |
| 2.1 to 20 | O=C(O)CCCCc1nc2cc(C(=O)NCc3cccc(Cl)c3)ccc2nc1-c1ccccc1 [15U, 5-{7-[(3-chlorobenzyl)carbamoyl]-3-phenylquinoxalin-2-yl}pentanoic acid] |
| 2.1 to 20 | C[C@H](NC(=O)c1ccc2nc(-c3ccc(Cl)cc3)c(CCCCC(=O)O)nc2c1)c1ccccn1 [16Z, 3-(4-chlorophenyl)-7-[[[1(S)-(2-pyridinyl)ethyl]amino]carbonyl]-2-quinoxalinepentanoic acid] |
| 0.1 to 2 | O=C(O)CCCCc1nc2cc(C(=O)N3CCCc4ccccc43)ccc2nc1-c1ccccc1 [15Bi, 5-[7-(3,4-dihydro-quinolin-1(2H)-ylcarbonyl)-3-phenylquinoxalin-2-yl]pentanoic acid] |

More lines, now with the values behind:

| SMILES | Ki [nM] |
| --- | --- |
| O=C(O)CCCCc1nc2cc(C(=O)C3CC3)ccc2nc1-c1ccc(C(F)(F)F)cc1 [3Z, 7-(cyclopropylcarbonyl)-3-[4-(trifluoromethyl)phenyl]-2-quinoxalinepentanoic acid] | 0.1 to 2 |
| C[C@@H](NC(=O)c1ccc2nc(CCCCC(=O)O)c(-c3ccccc3)nc2c1)c1ccc(F)cc1 [8G] | 20.1 to 200 |
| O=C(O)CCCCc1nc2cc(C(=O)N[C@H]3CCCc4cc(F)ccc43)ccc2nc1-c1ccc(F)cc1 [compound 220, 3-(4-fluorophenyl)-7-[[(6-fluoro-1,2,3,4-tetrahydro-1(S)-naphthalenyl)amino]carbonyl]-2-quinoxalinepentanoic acid] | 0.1 to 2 |
| O=C(O)CCCCc1nc2cc(C(=O)N[C@H]3CCc4cc(Cl)ccc43)ccc2nc1-c1ccc(F)cc1 [compound 226, 7-[[(5-chloro-2,3-dihydro-1H-inden-1(S)-yl)amino]carbonyl]-3-(4-fluorophenyl)-2-quinoxalinepentanic acid] | 0.1 to 2 |
| C[C@@H](NC(=O)c1ccc2nc(-c3ccc(F)cc3)c(CCc3cccc(CC(=O)O)c3)nc2c1)c1ccc(F)cc1 [compound 195, 3-[2-[3-(4-fluorophenyl)-7-[[[1(R)-(4-fluorophenyl)ethyl]amino]carbonyl]-2-quinoxalinyl]ethyl] benzeneacetic acid] | 20.1 to 200 |
| O=C(O)CCCCc1nc2cc(C(=O)N[C@@H](c3ccc(Cl)cc3)C(F)(F)F)ccc2nc1-c1ccc(F)cc1 [compound 227, 7-[[[1(S)-(4-chlorophenyl)-2,2,2-trifluoroethyl]amino]carbonyl]-3-(4-fluorophenyl)-2-quinoxalinepentanoic acid] | 0.1 to 2 |

Same assay, conditions: [3H]PGD2 binding, values in text

| Ki [nM] | SMILES |
| --- | --- |
| 15.4 | O=C(N[C@@H]1CCCc2cc(F)ccc21)c1ccc2nc(-c3ccc(F)cc3)c(CCC3CC3C(=O)O)nc2c1 (stereo partly drawn) [compound 264, 2-(2-(7-(((R)-6-fluoro-1,2,3,4-tetrahydronaphthalen-l-yl)carbamoyl)-3-(4-fluorophenyl)quinoxalin-2-yl)ethyl)cyclopropanecarboxylic acid] |

Same assay, conditions: [3H]PGD2 competition, Table B

| Ki [nM] | SMILES |
| --- | --- |
| 0.1 to 2 | CC(CCc1nc2cc(C(=O)N[C@H](C)c3ccc(F)cc3)ccc2nc1-c1ccc(Cl)cc1)CC(=O)O (stereo partly drawn) [compound 429, 5-(3-(4-chlorophenyl)-7-(((R)-1-(4-fluorophenyl)ethyl)carbamoyl)quinoxalin-2-yl)-3-methylpentanoic acid] |
| 2.1 to 20 | O=C(O)CCCCc1nc2cc(C(=O)N3CCC4(CC3)CNC(=O)c3ccccc34)ccc2nc1-c1ccc(Cl)cc1 [compound 267, 5-(3-(4-chlorophenyl)-7-(1-oxo-2,3-dihydro-1H-spiro[isoquinoline-4,4′-piperidin]-1′-ylcarbonyl)quinoxalin-2-yl)pentanoic acid] |
| 2.1 to 20 | O=C(O)CCCCc1nc2cc(C(=O)N3CCO[C@@H](c4ccc(C(F)(F)F)cc4)C3)ccc2nc1-c1ccc(Cl)cc1 [compound 615, (S)-5-(3-(4-chlorophenyl)-7-(2-(4-(trifluoromethyl)phenyl)morpholine-4-carbonyl)quinoxalin-2-yl)pentanoic acid] |
| 2.1 to 20 | CC(CCc1nc2cc(C(=O)N[C@@H]3CCCc4ccccc43)ccc2nc1-c1ccc(F)cc1)CC(=O)O (stereo partly drawn) [compound 431, 5-(3-(4-fluorophenyl)-7-(((R)-1,2,3,4-tetrahydronaphthalen-1-yl)carbamoyl)quinoxalin-2-yl)-3-methylpentanoic acid] |
| 0.1 to 2 | C[C@@H](NC(=O)c1ccc2nc(-c3ccc(Cl)cc3)c(CCCCC(=O)O)nc2c1)c1ccc(F)c(F)c1 [compound 374, (R)-5-(3-(4-chlorophenyl)-7-((1-(3,4-difluorophenyl)ethyl)carbamoyl)quinoxalin-2-yl)pentanoic acid] |
| 2.1 to 20 | CC(CCCc1nc2cc(C(=O)N3CCN(c4ccccc4)CC3)ccc2nc1-c1ccc(C(F)(F)F)cc1)C(=O)O (stereo not drawn) [compound 423, 2-methyl-5-(7-(4-phenylpperazine-1-carbonyl)-3-(4-(trifluoromethyl)phenyl)quinoxalin-2-yl) pentanoic acid] |
| 20.1 to 200 | C[C@@H](NC(=O)c1ccc2nc(-c3ccccc3)c(CCCCC(=O)O)nc2c1)c1cccc2ncccc12 [compound 639, (R)-5-(3-phenyl-7-((1-(quinolin-5-yl)ethyl)carbamoyl)quinoxalin-2-yl)pentanoic acid] |
| 20.1 to 200 | C[C@@H](CCc1nc2cc(C(=O)N[C@H]3CCCc4ccccc43)ccc2nc1-c1ccccc1)CC(=O)O [compound 286, (S)-3-methyl-5-(3-phenyl-7-(((S)-1,2,3,4-tetrahydronaphthalen-1-yl)carbamoyl)quinoxalin-2-yl)pentanoic acid] |
| 2.1 to 20 | O=C(N[C@@H]1CCCc2cc(F)ccc21)c1ccc2nc(-c3ccc(F)cc3)c(CCC3CC3C(=O)O)nc2c1 (stereo partly drawn) [compound 264, 2-(2-(7-(((R)-6-fluoro-1,2,3,4-tetrahydronaphthalen-l-yl)carbamoyl)-3-(4-fluorophenyl)quinoxalin-2-yl)ethyl)cyclopropanecarboxylic acid] |
| 2.1 to 20 | C[C@H](CCc1nc2cc(C(=O)N[C@@H]3CCCc4ccccc43)ccc2nc1-c1ccc(F)cc1)CC(=O)O [compound 439, (R)-5-(3-(4-fluorophenyl)-7-(((R)-1,2,3,4-tetrahydronaphthalen-1-yl)carbamoyl)quinoxalin-2-yl)-3-methylpentanoic acid] |
| 20.1 to 200 | CC(CCCc1nc2cc(C(=O)N[C@@H](C)c3ccc(Cl)cc3)ccc2nc1-c1ccc(F)cc1)C(=O)O (stereo partly drawn) [compound 428, 5-(7-(((S)-1-(4-chlorophenyl)ethyl)carbamoyl)-3-3-(4-fluorophenyl)quinoxalin-2-yl)-2-methylpentanoic acid] |
| 20.1 to 200 | O=C(O)CCCCc1nc2cc(C(=O)N[C@@H]3CCCc4ncccc43)ccc2nc1-c1ccccc1 [compound 503, (R)-5-(3-phenyl-7-((5,6,7,8-tetrahydroquinolin-5-yl)carbamoyl)quinoxalin-2-yl)pentanoic acid] |
| 20.1 to 200 | C[C@@H](NC(=O)c1ccc2nc(-c3ccc(F)cc3)c(CCCCC(=O)O)nc2c1)c1ccc(F)c2ccccc12 [compound 572, (R)-5-(7-((1-(4-fluoronaphthalen-1-yl)ethyl)carbamoyl)-3-(4-fluorophenyl)quinoxalin-2-yl)pentanoic acid] |
| 0.1 to 2 | CN(Cc1ccccc1)C(=O)c1ccc2nc(-c3ccc(Cl)cc3)c(CCCCC(=O)O)nc2c1 [compound 593, 5-(7-(benzyl(methyl)carbamoyl)-3-(4-chlorophenyl)quinoxalin-2-yl)pentanoic acid] |
| 20.1 to 200 | O=C(O)Cc1cccc(CCCc2nc3cc(C(=O)N4CC(c5cccc(F)c5)C4)ccc3nc2-c2ccc(F)cc2)c1 [compound 273, 2-(3-(3-(3-(4-fluorophenyl)-7-(3-(3-fluorophenyl)azetidine-1-carbonyl)quinoxalin-2-yl)propyl)phenyl)acetic acid] |
| 2.1 to 20 | O=C(O)CCCCc1nc2cc(C(=O)N3CCN(c4cccnc4)CC3)ccc2nc1-c1ccc(Cl)cc1 [compound 679, 5-(3-(4-chlorophenyl)-7-(4-(pyridin-3-y)piperazine-1-carbonyl)quinoxalin-2-yl)pentanoic acid] |
| 2.1 to 20 | O=C(O)CCCCc1nc2cc(C(=O)N[C@@H]3CCOc4ccc(F)cc43)ccc2nc1-c1ccc(F)cc1 [compound 537, (R)-5-(7((6-fluorochroman-4-yl)carbamoyl)-3-(4-fluorophenyl)quinoxalin-2-yl)pentanoic acid] |
| 2.1 to 20 | O=C(O)CCCCc1nc2cc(C(=O)N[C@@H]3COc4cc(F)ccc43)ccc2nc1-c1ccc(Cl)cc1 [compound 314, (S)-5-(3-(4-chlorophenyl)-7-((6-fluoro-2,3-dihydrobenzofuran-3-yl)carbamoyl)quinoxalin-2-yl)pentanoic acid] |
